Measurements: patent US20100056526A1, “HETEROMONOCYCLIC COMPOUND AND USE THEREOF” (Takeda Pharmaceutical Company Limited, priority 2006, published 2010)
Structures can show the parent of a compound that is named as a salt. Where two headings read alike, the source gives them in different places.

Experiments:
human AT1 receptor = biological target: T1, human AT1 receptor (Homo sapiens, UniProt P30556); experiment: Binding assay using human AT1 receptor-expressing CHO-K1 cell membrane fraction ([125I]-angiotensin II); conditions: 22.5 pM [125I]-angiotensin II, 9 μg AT1 membrane, 1 hr room temperature; read-out: AT1 receptor binding inhibitory action (IC50 (nM))
T1 construct: expressed in transfected cells; host or cells: CHO-K1
T1 sequence (P30556 1-359): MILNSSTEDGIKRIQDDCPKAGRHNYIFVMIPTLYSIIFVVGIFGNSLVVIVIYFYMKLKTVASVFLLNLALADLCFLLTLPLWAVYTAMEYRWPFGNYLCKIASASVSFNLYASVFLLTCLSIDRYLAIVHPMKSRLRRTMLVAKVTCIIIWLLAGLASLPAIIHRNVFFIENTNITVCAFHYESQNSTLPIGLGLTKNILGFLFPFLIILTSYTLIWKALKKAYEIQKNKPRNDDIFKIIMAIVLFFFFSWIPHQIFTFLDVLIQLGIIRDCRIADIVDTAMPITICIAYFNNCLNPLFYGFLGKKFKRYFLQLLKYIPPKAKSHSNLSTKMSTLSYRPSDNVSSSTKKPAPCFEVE
How it was run: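 CHO-K1 membranes stably expressing AT1 (9 μg) incubated with 22.5 pM [125I]-angiotensin II and compound in 50 mM Tris pH 7.4, 10 mM MgCl2, with or without 0.3 mg/mL fatty acid-free BSA, 1 hr at room temperature. Bound radioactivity counted after GF/C filtration; nonspecific binding with 1 μM CV-11974; IC50 calculated.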

PPARγ = biological target: T2, PPARγ (Homo sapiens, UniProt P37231); experiment: Evaluation of PPARγ activating action (luciferase reporter in PPARγ:RXRα:4ERPP/CHO-K1 cells); type: cell-based; conditions: CHO-K1, 24 h, read-out: PPARγ activating action (activation % (10^−6 M))
T2 construct: expressed in transfected cells; host or cells: CHO-K1
T2 sequence (P37231 1-477 isoform P37231-2): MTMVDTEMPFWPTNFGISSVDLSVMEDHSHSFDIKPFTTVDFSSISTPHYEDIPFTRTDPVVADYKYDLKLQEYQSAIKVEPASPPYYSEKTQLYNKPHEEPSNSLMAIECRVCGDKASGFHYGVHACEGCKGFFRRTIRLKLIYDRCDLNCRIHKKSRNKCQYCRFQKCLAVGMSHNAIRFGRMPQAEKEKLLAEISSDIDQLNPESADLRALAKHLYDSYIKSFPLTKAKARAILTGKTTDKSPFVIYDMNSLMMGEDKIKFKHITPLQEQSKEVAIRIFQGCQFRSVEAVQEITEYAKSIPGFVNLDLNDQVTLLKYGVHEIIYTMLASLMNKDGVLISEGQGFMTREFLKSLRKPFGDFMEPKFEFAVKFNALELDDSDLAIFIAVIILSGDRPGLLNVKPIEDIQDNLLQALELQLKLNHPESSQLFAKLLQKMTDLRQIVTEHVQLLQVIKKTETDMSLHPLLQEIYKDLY
T2 sequence (P19793 1-462 partner): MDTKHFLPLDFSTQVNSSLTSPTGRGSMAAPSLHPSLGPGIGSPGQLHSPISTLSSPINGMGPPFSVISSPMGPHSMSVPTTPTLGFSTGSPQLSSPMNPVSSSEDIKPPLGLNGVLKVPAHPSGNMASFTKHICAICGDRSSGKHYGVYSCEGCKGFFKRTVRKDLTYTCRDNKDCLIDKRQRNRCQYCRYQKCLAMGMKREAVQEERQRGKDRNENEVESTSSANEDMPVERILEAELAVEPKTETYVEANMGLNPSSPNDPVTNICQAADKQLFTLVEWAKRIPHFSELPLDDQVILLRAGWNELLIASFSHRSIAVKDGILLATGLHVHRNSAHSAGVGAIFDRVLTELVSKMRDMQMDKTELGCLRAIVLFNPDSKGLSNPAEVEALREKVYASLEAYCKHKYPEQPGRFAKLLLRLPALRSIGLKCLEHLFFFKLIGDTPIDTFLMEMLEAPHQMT
How it was run: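 CHO-K1 cells stably carrying PPARγ, RXRα and a 4ERPP luciferase reporter were treated with compound for 1 day at 37 °C in F12 medium with 0.1% fatty acid-free BSA. Luciferase activity was read and scaled between no compound (0%) and reference agonist compound X at 1 μM (100%).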

[1] = test compound 10^−6 M, luciferase activity relative to control compound X (1 μM) = 100%, non-administration group = 0%

| Structure (SMILES) | IC50 (human AT1 receptor) [nM] | activation at 1 µM (PPARγ; [1]) [%] | activation at 1 µM (PPARγ) [%] |
| --- | --- | --- | --- |
| CCCc1nc(CC)c(-c2ccc(OC(C)C)nc2)c(=O)n1Cc1ccc(-c2ccccc2-c2noc(O)n2)cc1F [Example 467, 6-ethyl-3-{[3-fluoro-2′-(5-oxo-4,5-dihydro-1,2,4-oxadiazol-3-yl)biphenyl-4-yl]methyl}-5-(6-isopropoxypyridin-3-yl)-2-propylpyrimidin-4(3H)-one] | 2.5 | 35.7 | – |
| CCCc1nc(CC)c(C(O)C(C)C)c(=O)n1Cc1ccc(-c2ccccc2-c2noc(O)n2)cc1 (stereo not drawn) [Example 473, 6-ethyl-5-(1-hydroxy-2-methylpropyl)-3-{[2′-(5-oxo-4,5-dihydro-1,2,4-oxadiazol-3-yl)biphenyl-4-yl]methyl}-2-propylpyrimidin-4(3H)-one potassium salt] | 3.6 | – | 15.7 |
| CCCc1nc(C)c(-c2ccc(OC(C)(C)C)cc2)c(=O)n1Cc1ccc(-c2ccccc2-c2noc(O)n2)cc1F [Example 475, 5-(4-tert-butoxyphenyl)-3-{[3-fluoro-2′-(5-oxo-4,5-dihydro-1,2,4-oxadiazol-3-yl)biphenyl-4-yl]methyl}-6-methyl-2-propylpyrimidin-4(3H)-one] | 2 | 28.7 | – |
| CCCc1nc(C)c(Oc2ccc(OC)cc2)c(=O)n1Cc1ccc(-c2ccccc2-c2noc(O)n2)cc1 [Example 476, 5-(4-methoxyphenoxy)-6-methyl-3-{[2′-(5-oxo-4,5-dihydro-1,2,4-oxadiazol-3-yl)biphenyl-4-yl]methyl}-2-propylpyrimidin-4(3H)-one potassium salt] | 2.1 | – | 18.5 |
| CCCc1nc(C)c(-c2ccc(OC(C)C)nc2)c(=O)n1Cc1ccc(-c2ccccc2-c2noc(=O)[nH]2)cc1F [Example 482, 3-{[3-fluoro-2′-(5-oxo-4,5-dihydro-1,2,4-oxadiazol-3-yl)biphenyl-4-yl]methyl}-5-(6-isopropoxypyridin-3-yl)-6-methyl-2-propylpyrimidin-4(3H)-one] | 1.9 | 30.4 | – |
| CCCc1nc(CC)c(Oc2cccc(OC)c2)c(=O)n1Cc1ccc(-c2ccccc2-c2noc(O)n2)cc1 [Example 488, 6-ethyl-5-(3-methoxyphenoxy)-3-{[2′-(5-oxo-4,5-dihydro-1,2,4-oxadiazol-3-yl)biphenyl-4-yl]methyl}-2-propylpyrimidin-4(3H)-one potassium salt] | 1.9 | – | 16.7 |
| CCCc1nc(C)c(-c2ccc(OCC3CC3)nc2)c(=O)n1Cc1ccc(-c2ccccc2-c2noc(=O)[nH]2)cc1F [Example 501, 5-[6-(cyclopropylmethoxy)pyridin-3-yl]-3-{[3-fluoro-2′-(5-oxo-4,5-dihydro-1,2,4-oxadiazol-3-yl)biphenyl-4-yl]methyl}-6-methyl-2-propylpyrimidin-4(3H)-one] | 2.6 | 31.8 | – |
| CCCc1nc(CC)c(-c2ccc(OCC)nc2)c(=O)n1Cc1ccc(-c2ccccc2-c2noc(O)n2)cc1 [Example 507, 5-(6-ethoxypyridin-3-yl)-6-ethyl-3-{[2′-(5-oxo-4,5-dihydro-1,2,4-oxadiazol-3-yl)biphenyl-4-yl]methyl}-2-propylpyrimidin-4(3H)-one] | 2.2 | 32.4 | – |
| CCCCc1nc(C2CC2)c(-c2ccc(OC(C)(C)CO)cc2)c(=O)n1Cc1ccc(-c2ccccc2-c2noc(O)n2)cc1 [Example 510, 2-butyl-6-cyclopropyl-5-[4-(2-hydroxy-1,1-dimethylethoxy)phenyl]-3-{[2′-(5-oxo-4,5-dihydro-1,2,4-oxadiazol-3-yl)biphenyl-4-yl]methyl}pyrimidin-4(3H)-one] | 2.3 | 24.4 | – |

Continued, in another order:

| IC50 (human AT1 receptor) [nM] | activation at 1 µM (PPARγ; [1]) [%] | Structure (SMILES) | activation at 1 µM (PPARγ) [%] |
| --- | --- | --- | --- |
| 2.1 | 40 | CCCOc1ccc(-c2c(CC)nc(CCC)n(Cc3ccc(-c4ccccc4-c4noc(=O)[nH]4)cc3)c2=O)cc1 [Example 459, 6-ethyl-3-{[2′-(5-oxo-4,5-dihydro-1,2,4-oxadiazol-3-yl)biphenyl-4-yl]methyl}-5-(4-propoxyphenyl)-2-propylpyrimidin-4(3H)-one] | – |
| 2.2 | 30 | CCCc1nc(CC)c(-c2ccc(OC(C)C)c(F)c2)c(=O)n1Cc1ccc(-c2ccccc2-c2noc(=O)[nH]2)cc1 [Example 460, 6-ethyl-5-(3-fluoro-4-isopropoxyphenyl)-3-{[2′-(5-oxo-4,5-dihydro-1,2,4-oxadiazol-3-yl)biphenyl-4-yl]methyl}-2-propylpyrimidin-4(3H)-one] | – |
| 3.2 | 30.8 | CCCc1nc(CC)c(Oc2ccc(CC)cc2)c(=O)n1Cc1ccc(-c2ccccc2-c2noc(O)n2)cc1 [Example 480, 6-ethyl-5-(4-ethylphenoxy)-3-{[2′-(5-oxo-4,5-dihydro-1,2,4-oxadiazol-3-yl)biphenyl-4-yl]methyl}-2-propylpyrimidin-4(3H)-one] | – |
| 2.4 | 31.5 | CCCc1nc(CC)c(-c2ccc(OC(C)C)nc2)c(=O)n1Cc1ccc(-c2ccccc2-c2noc(=O)[nH]2)cc1 [Example 483, 6-ethyl-5-(6-isopropoxypyridin-3-yl)-3-{[2′-(5-oxo-4,5-dihydro-1,2,4-oxadiazol-3-yl)biphenyl-4-yl]methyl}-2-propylpyrimidin-4(3H)-one] | – |
| 2.3 | 19.4 | CCCc1nc(CC)c(Oc2cc(F)ccc2F)c(=O)n1Cc1ccc(-c2ccccc2-c2noc(=O)[nH]2)cc1 [Example 484, 5-(2,5-difluorophenoxy)-6-ethyl-3-{[2′-(5-oxo-4,5-dihydro-1,2,4-oxadiazol-3-yl)biphenyl-4-yl]methyl}-2-propylpyrimidin-4(3H)-one] | – |
| 2 | 23.5 | CCCc1nc(CC)c(Oc2ccc3c(c2)OCO3)c(=O)n1Cc1ccc(-c2ccccc2-c2noc(O)n2)cc1 [Example 485, 5-(1,3-benzodioxol-5-yloxy)-6-ethyl-3-{[2′-(5-oxo-4,5-dihydro-1,2,4-oxadiazol-3-yl)biphenyl-4-yl]methyl}-2-propylpyrimidin-4(3H)-one] | – |
| 2.7 | 35.9 | CCCc1nc(CC)c(-c2ccc(OCC3CC3)nc2)c(=O)n1Cc1ccc(-c2ccccc2-c2noc(=O)[nH]2)cc1 [Example 500, 5-[6-(cyclopropylmethoxy)pyridin-3-yl]-6-ethyl-3-{[2′-(5-oxo-4,5-dihydro-1,2,4-oxadiazol-3-yl)biphenyl-4-yl]methyl}-2-propylpyrimidin-4(3H)-one] | – |
| 1.2 | 16.2 | CCCc1nc(C)c(-c2ccc(OC(C)(C)CO)cc2)c(=O)n1Cc1ccc(-c2ccccc2-c2noc(=O)[nH]2)cc1F [Example 509, 3-{[3-fluoro-2′-(5-oxo-4,5-dihydro-1,2,4-oxadiazol-3-yl)biphenyl-4-yl]methyl}-5-[4-(2-hydroxy-1,1-dimethylethoxy)phenyl]-6-methyl-2-propylpyrimidin-4(3H)-one] | – |
| 1.3 | 31 | CCCc1nc(CC)c(-c2ccc(OC(C)(C)CO)cc2)c(=O)n1Cc1ccc(-c2ccccc2-c2noc(=O)[nH]2)cc1F [Example 511, 6-ethyl-3-{[3-fluoro-2′-(5-oxo-4,5-dihydro-1,2,4-oxadiazol-3-yl)biphenyl-4-yl]methyl}-5-[4-(2-hydroxy-1,1-dimethylethoxy)phenyl]-2-propylpyrimidin-4(3H)-one] | – |
